In patent US9834542B2, “LXR modulators” (BRISTOL-MYERS SQUIBB COMPANY, priority 2013, dated 2017):
pEC50: −log10 of the molar value.

Target: T1, LXRβ (Homo sapiens, UniProt P55055)
T1 construct: Co-transfection expression plasmids, comprising full-length LXRα (pCMX-h LXRα[…] or LXRβ (pCMX-hLXRβ)); expressed in transfected cells; host or cells: CV-1 African Green Monkey Kidney Cells
T1 sequence (P55055 1-460): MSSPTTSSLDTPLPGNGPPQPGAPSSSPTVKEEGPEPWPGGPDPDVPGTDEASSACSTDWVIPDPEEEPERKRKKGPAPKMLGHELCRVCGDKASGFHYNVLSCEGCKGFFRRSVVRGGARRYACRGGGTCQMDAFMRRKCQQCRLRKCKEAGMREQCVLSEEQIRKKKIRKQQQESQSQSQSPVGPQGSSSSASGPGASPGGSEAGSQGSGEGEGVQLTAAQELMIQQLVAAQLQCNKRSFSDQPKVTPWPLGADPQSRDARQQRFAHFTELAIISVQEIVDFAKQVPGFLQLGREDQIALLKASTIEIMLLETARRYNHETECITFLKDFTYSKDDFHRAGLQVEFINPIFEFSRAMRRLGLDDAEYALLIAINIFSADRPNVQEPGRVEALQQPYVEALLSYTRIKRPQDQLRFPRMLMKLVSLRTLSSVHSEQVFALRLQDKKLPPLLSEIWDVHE
T1 sequence (P19793 1-462 partner): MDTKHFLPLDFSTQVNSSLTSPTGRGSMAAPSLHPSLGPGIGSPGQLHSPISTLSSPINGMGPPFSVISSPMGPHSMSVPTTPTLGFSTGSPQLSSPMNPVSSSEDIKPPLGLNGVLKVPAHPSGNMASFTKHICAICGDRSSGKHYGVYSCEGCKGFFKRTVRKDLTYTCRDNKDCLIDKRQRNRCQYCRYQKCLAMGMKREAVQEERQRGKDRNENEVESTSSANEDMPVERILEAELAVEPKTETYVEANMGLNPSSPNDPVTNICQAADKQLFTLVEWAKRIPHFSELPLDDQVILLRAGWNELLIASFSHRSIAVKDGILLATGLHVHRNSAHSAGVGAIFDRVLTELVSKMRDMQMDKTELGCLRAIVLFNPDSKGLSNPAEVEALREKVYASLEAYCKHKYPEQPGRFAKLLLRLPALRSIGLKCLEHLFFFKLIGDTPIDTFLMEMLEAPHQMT
Assay: Co-transfection assay (LXRE luciferase reporter), LXRβ
Type: cell-based
Conditions: for pEC50: CV-1 cells transfected with pCMX-hLXRβ and LXREx1-Tk-Luciferase, 20 hours incubation; for Emax: LXRβ co-transfection, relative to high control 1-(2,4-difluorobenzyl)-2-oxo-6-(4-phenoxyphenyl)-4-(trifluoromethyl)-1,2-dihydropyridine-3-carbonitrile, read-out: % Efficacy
Summary of the method: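 CV-1 cells transiently co-transfected with full-length human LXRβ (or LXRα), LXREx1-Tk-luciferase reporter and β-galactosidase control; compound added (10 μM final in single-point, 11-point ½-log curves, ≤0.5% DMSO) for 20 h at 37 °C. Luciferase read; EC50 from four-parameter fit, efficacy relative to reference agonist high control.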

| pEC50 | Emax [%] | Structure (SMILES) |
| --- | --- | --- |
| 6.89 | 93 | Cc1cc(-c2cnnn2-c2cc(-c3cccc(S(C)(=O)=O)c3)ccc2-n2cc(C(F)(F)F)nc2C)ccc1OC(F)(F)F [Example 20, 1-{3′-(methylsulfonyl)-4-[2-methyl-4-(trifluoromethyl)-1H-imidazol-1-yl]biphenyl-3-yl}-5-{3-methyl-4-[(trifluoromethyl)oxy]phenyl}-1H-1,2,3-triazole] |
| 6.07 | 92 | Cc1nc(C(F)(F)F)cn1-c1ccc(-c2cccc(S(C)(=O)=O)c2)cc1-n1nncc1-c1ccc(Cl)cc1F [Example 39, 5-(4-chloro-2-fluorophenyl)-1-{3′-(methylsulfonyl)-4-[2-methyl-4-(trifluoromethyl)-1H-imidazol-1-yl]biphenyl-3-yl}-1H-1,2,3-triazole] |
| 6.02 | 72 | Cc1nc(C2CC2)cn1-c1ccc(-c2cccc(S(C)(=O)=O)c2)cc1-n1nncc1-c1ccc(OC(F)(F)F)cc1 [Example 229, 1-(4-(4-cyclopropyl-2-methyl-1H-imidazol-1-yl)-3′-(methylsulfonyl)-[1,1′-biphenyl]-3-yl)-5-(4-(trifluoromethoxy)phenyl)-1H-1,2,3-triazole] |
| 6.90 | 81 | Cc1nc(C(F)(F)F)cn1-c1c(F)cc(-c2cccc(S(C)(=O)=O)c2)cc1-n1nncc1-c1ccc(OC(F)(F)F)cc1 [Example 201, 1-{5-fluoro-3′-(methylsulfonyl)-4-[2-methyl-4-(trifluoromethyl)-1H-imidazol-1-yl]biphenyl-3-yl}-5-{4-[(trifluoromethyl)oxy]phenyl)-1H-1,2,3-triazole] |
| 7.15 | 108 | Cc1nc(-c2cc(-c3cccc(S(C)(=O)=O)c3)ccc2-n2cc(C(F)(F)F)nc2C)c(-c2ccc(OC(F)F)cc2)o1 [Example 495, 5-(4-(difluoromethoxy)phenyl)-2-methyl-4-(4-(2-methyl-4-(trifluoromethyl)-1H-imidazol-1-yl)-3′-(methylsulfonyl)biphenyl-3-yl)oxazole] |
| 6.50 | 83 | COCc1ccc(-c2ccc(-n3cc(C(F)(F)F)nc3C)c(-n3nncc3-c3ccc(OC(F)(F)F)cc3)c2)cc1S(C)(=O)=O [Example 89, 1-{4′-[(methyloxy)methyl]-3′-(methylsulfonyl)-4-[2-methyl-4-(trifluoromethyl)-1H-imidazol-1-yl]biphenyl-3-yl}-5-{4-[(trifluoromethyl)oxy]phenyl}-1H-1,2,3-triazole] |
| 5.95 | 97 | Cc1nc(C(F)(F)F)cn1-c1cc(F)c(-c2cccc(S(C)(=O)=O)c2)cc1-n1nncc1-c1ccc(Cl)cc1 [Example 100, 5-(4-chlorophenyl)-1-{6-fluoro-3′-(methylsulfonyl)-4-[2-methyl-4-(trifluoromethyl)-1H-imidazol-1-yl]biphenyl-3-yl}-1H-1,2,3-triazole] |
| 7.24 | 87 | Cc1nc(C(F)(F)F)cn1-c1ccc(-c2cc(F)c(CO)c(S(C)(=O)=O)c2)cc1-c1ccnn1-c1ccc2c(c1)OC(F)(F)O2 [Example 294, (3′-(1-(2,2-difluorobenzo[d][1,3]dioxol-5-yl)-1H-pyrazol-5-yl)-3-fluoro-4′-(2-methyl-4-(trifluoromethyl)-1H-imidazol-1-yl)-5-(methylsulfonyl)biphenyl-4-yl)methanol] |
| 7.26 | 79 | Cc1nc(-c2cc(-c3cccc(S(C)(=O)=O)c3)ccc2-n2cc(C(F)(F)F)nc2C)c(-c2ccc(OC(F)F)c(Cl)c2)o1 [Example 398, 5-(3-chloro-4-(difluoromethoxy)phenyl)-2-methyl-4-(4-(2-methyl-4-(trifluoromethyl)-1H-imidazol-1-yl)-3′-(methylsulfonyl)biphenyl-3-yl)oxazole] |
| 6.64 | 70 | Cc1ccc(C(C)c2cnnn2-c2cc(-c3cccc(S(=O)(=O)N(C)C)c3)ccc2-n2cc(C(F)(F)F)nc2C)cc1 (stereo not shown) [Example 105, N,N-dimethyl-3′-{5-[1-(4-methylphenyl)ethyl]-1H-1,2,3-triazol-1-yl}-4′-[2-methyl-4-(trifluoromethyl)-1H-imidazol-1-yl]biphenyl-3-sulfonamide] |
| 6.18 | 70 | COc1ncc(-c2oc(C)nc2-c2cc(-c3cccc(S(C)(=O)=O)c3)ccc2-n2cc(C(F)(F)F)nc2C)cn1 [Example 414, 5-(2-methoxypyrimidin-5-yl)-2-methyl-4-(4-(2-methyl-4-(trifluoromethyl)-1H-imidazol-1-yl)-3′-(methylsulfonyl)biphenyl-3-yl)oxazole] |
| 6.51 | 81 | Cc1nc(C(F)(F)F)cn1-c1ccc(-c2cc(F)c(CO)c(S(C)(=O)=O)c2)cc1-c1ncoc1-c1ccc(Cl)cc1 [Example 365, {3′-[5-(4-chlorophenyl)-1,3-oxazol-4-yl]-3-fluoro-5-(methylsulfonyl)-4′-[2-methyl-4-(trifluoromethyl)-1H-imidazol-1-yl]biphenyl-4-yl}methanol] |
| 6.09 | 77 | CCS(=O)(=O)c1cccc(-c2ccc(-n3cc(C(F)F)nc3C)c(-n3nncc3C(C)c3ccc(Cl)cc3)c2)c1 (stereo not shown) [Example 131, 5-[1-(4-chlorophenyl)ethyl]-1-{4-[4-(difluoromethyl)-2-methyl-1H-imidazol-1-yl]-3′-(ethylsulfonyl)biphenyl-3-yl}-1H-1,2,3-triazole] |
| 6.99 | 77 | Cc1ccc(C(C)c2cnnn2-c2cc(-c3cc(Cl)c(CO)c(S(C)(=O)=O)c3)ccc2-n2cc(C(F)(F)F)nc2C)cc1 (stereo not shown) [Example 110, (3-chloro-3′-{5-[1-(4-methylphenyl)ethyl]-1H-1,2,3-triazol-1-yl}-5-(methylsulfonyl)-4′-[2-methyl-4-(trifluoromethyl)-1H-imidazol-1-yl]biphenyl-4-yl)methanol] |
| 6.29 | 64 | Cc1nc(C(F)(F)F)cn1-c1ccc(-c2cc(F)c(CO)c(S(C)(=O)=O)c2)cc1-c1oc(CCO)nc1-c1ccc(OC(F)(F)F)cc1 [Example 612, 2-(5-(3′-fluoro-4′-(hydroxymethyl)-4-(2-methyl-4-(trifluoromethyl)-1H-imidazol-1-yl)-5′-(methylsulfonyl)-[1,1′-biphenyl]-3-yl)-4-(4-(trifluoromethoxy)phenyl)oxazol-2-yl)ethanol] |
| 6.70 | 89 | Cc1nc(C(F)(F)F)cn1-c1ccc(-c2ccc(CCO)c(S(C)(=O)=O)c2)cc1-n1nncc1-c1ccc(OC(F)(F)F)cc1 [Example 236, 2-(4′-(2-methyl-4-(trifluoromethyl)-1H-imidazol-1-yl)-3-(methylsulfonyl)-3′-(5-(4-(trifluoromethoxy)phenyl)-1H-1,2,3-triazol-1-yl)-[1,1′-biphenyl]-4-yl)ethanol] |
| 6.45 | 30 | Cc1nc(C(F)(F)F)cn1-c1ccc(-c2cccc(S(C)(=O)=O)c2)cc1-c1nc(C(C)CO)oc1-c1ccc(OC(F)(F)F)cc1 (stereo not shown) [Example 565, 2-(4-(4-(2-methyl-4-(trifluoromethyl)-1H-imidazol-1-yl)-3′-(methylsulfonyl)-[1,1′-biphenyl]-3-yl)-5-(4-(trifluoromethoxy)phenyl)oxazol-2-yl)propan-1-ol] |
| 6.80 | 107 | Cc1nc(C(F)(F)F)cn1-c1ccc(-c2cccc(S(C)(=O)=O)c2)cc1-n1nncc1-c1ccc(N2CCCC2)cc1 [Example 51, 1-{3′-(methylsulfonyl)-4-[2-methyl-4-(trifluoromethyl)-1H-imidazol-1-yl]biphenyl-3-yl}-5-(4-pyrrolidin-1-ylphenyl)-1H-1,2,3-triazole] |
| 6.05 | 78 | CCS(=O)(=O)c1cccc(-c2ccc(-n3cc(C(C)(F)F)nc3C)c(-n3nncc3-c3ccc(OC(F)(F)F)cc3)c2)c1 [Example 177, 1-{4-[4-(1,1-difluoroethyl)-2-methyl-1H-imidazol-1-yl]-3′-(ethylsulfonyl)biphenyl-3-yl}-5-{4-[(trifluoromethyl)oxy]phenyl}-1H-1,2,3-triazole] |
| 5.89 | 99 | Cc1nc(C(F)(F)F)cn1-c1ccc(-c2cccc(S(C)(=O)=O)c2)cc1-n1nncc1C(=O)c1ccc(C(F)(F)F)cc1 [Example 138, (1-{3′-(methylsulfonyl)-4-[2-methyl-4-(trifluoromethyl)-1H-imidazol-1-yl]biphenyl-3-yl}-1H-1,2,3-triazol-5-yl)[4-(trifluoromethyl)phenyl]meth-anone] |
